The values that follow come from US11541010B2, “Amphoteric liposomes comprising imino lipids” (BioNTech Delivery Technologies GmbH, priority 2009, dated 2023).

Common to all, as to type: cell-based
Assay [1] has as its system HeLa cells. In words: Serum resistant transfection, cationic lipids with phosphate lipid DOPA, HeLa IC50 (Example 15). As to conditions: liposomes of the cationic lipid in combination with phosphate lipid DOPA, PLK-1 siRNA. How it is done: (§1) HeLa cells were obtained from DSMZ (German Collection of Micro Organism and Cell Cultures) and maintained in DMFM (Gibco-Invitrogen) and supplemented with 10% FCS. The cells were plated at a density of 2.5×10^4 cells/ml and cultivated in 100 μl medium at 37° C. under 5% CO2. After 16 h, the liposomes containing siRNA were diluted and 10 μl were added to the cells to yield final concentrations between 0.4 to 100 nM Plk1 or scrambled siRNA; 10 μl dilution buffer were also added to untreated cells and into wells without cells. Cell culture dishes were incubated for 72 h at 37° C. under 5% CO2
(§2) Cell proliferation/viability was determined by using the CellTiter-Blue Cell Viability assay (Promega, US) according to the instructions of the supplier.
Series of liposomes having C/A ratios of either 0.75 or 1 were produced and loaded with siRNA as in Example 5. The cationic lipid components were CHOLGUA, CHIM, DC-CHOL, GUADACA, MPDACA, BADACA, PONA, DOTAP or DODAP. The anionic lipid was DOPA and the cholesterol content was 40 mol %, all lipid mixtures are identified in table 20. Liposomes were further supplied with 1.5 mol % DMPE-PEG2000 (Nippon Oils and Fats).
HeLa cells were grown and maintained as in Example 2 and mouse serum (SIGMA-Aldrich) was added directly to the cells for 120-min. Following that, the liposomes were added to the cells, incubation was continued for 72 h and cell viability was determined as above. The efficacy of transfection is expressed here as IC50 (in nM of siRNA) as in Example 5.

The subject of assay [2] is HeLa cells. As to the kind of experiment: Serum resistant transfection, DACA or cholesterol based cationic lipids with carboxyl lipids, HeLa (Example 14). As to conditions: for serum-resistant transfection of HeLa cells: liposomes of the cationic lipid with carboxyl lipid DOGS and cholesterol, PLK-1 siRNA, 10% mouse serum; for transfection of HeLa cells in the presence of mouse serum: liposomes of the cationic lipid with carboxyl lipids CHEMS, DMGS or DOGS, 20 or 40 mol % cholesterol. As for the experimental part: All liposomes were loaded with PLK-1 siRNA, an oligonucleotide capable of inhibiting the production of the cell cycle kinase PLK-1 and successful transfection was measured by inhibition of cell viability of the test cells (see also Haupenthai et al., int. J. Cancer (2007), 121:206-210. Unspecific inhibition of the cell viability, that is, cytotoxic effects, were monitored by control preparations comprising a non-targeting siRNA of the same general composition and in the same amounts.
The transfection of cells was followed in regular cell culture medium or with the additional presence of 10% mouse serum, a potent inhibitor of cellular uptake for many amphoteric liposomes. The efficacy of transfection is expressed as IC50, the concentration needed to achieve a 50% inhibition of the cell viability.
The ratio between the IC50 in regular medium and the IC50 upon addition of mouse serum is used as a metric for the inhibition of the cellular uptake by mouse serum. This ratio is 5 or higher for liposomes without specific targeting properties. It is 5 or lower for the liposomes of this invention; that is liposomes comprising charged imino groups in combination with negatively charged lipids.
Series of liposomes having systematically varied ratios between the cationic and anionic lipid components were produced and loaded with siRNA as in Example 5. The cationic lipid components were CHOLGUA, CHIM, DC-CHOL, TC-CHOL, GUADACA, MPDACA, BADACA end PDAGA. The anionic lipids were CHEMS, DMGS or DOGS and the cholesterol content was either 20 or 40 mol %, all lipid mixtures are identified in the data tables. Liposomes having a ratio of the cationic: anionic lipid of 1 or greater (C/A>=1) were further supplied with 1.5 mol % DMPE-PEG2000 (Nippon Oils and Fats).
HeLa cells were grown and maintained as in Example 2 and mouse serum (SIGMA-Aldrich) was added directly to the cells for 120 min. Following that, the liposomes were added to the cells, incubation was continued for 72 h and cell viability was determined as above. The highest concentrations of liposomes were 40 nM and 36 nM for experiments in the absence or presence of mouse serum, respectively. The efficacy of transfection is expressed here as IC50 (in nM siRNA) as in Example 5.

Assay [3] deals with HeLa cells. As to the kind of experiment: Criticality of the guanido head group, HeLa proliferation IC50 with and without sera (Example 6). The note with it: mixtures comprising an excess of the anionic lipid CHEMS, 20% cholesterol. How it is done:
as §1, §2
Series of liposomes having systematically varied ratios between the cationic and anionic lipid components were produced and loaded with siRNA as in Example 5. The cationic lipid components were PONA, PONamine and PONammonium, the anionic lipid was CHEMS and the cholesterol content was fixed to 20 mol %. […]
HeLa cells were grown and maintained as in Example 2 and sera of human or mice origin (SIGMA-Aldrich) was added directly to the cells for 120 min. Following that, the liposomes were added to the cells in concentrations between 50 pM and 50 nM, incubation was continued for 72 h and cell viability was determined as above. […]

“Also recorded” adds a separate entry of the source.

Consider `CC(C)CCC[C@@H](C)[C@H]1CC[C@H]2[C@@H]3CCC4CC(OC(=O)NCCCn5ccnc5)CC[C@]4(C)[C@H]3CC[C@]12C` (some centres unmarked) [CHIM, reference compound], for which, in assay [1], the “transfection of HeLa cells in the presence of serum” value (shortened to “transfection … of serum”) was “did not result in any transfection in the presence of serum”.

`CC(C)CCC[C@@H](C)[C@H]1CC[C@H]2[C@@H]3CC=C4C[C@@H](OC(=O)NCCNC(=N)N)CC[C@]4(C)[C@H]3CC[C@]12C` [CHOLGUA]: the “transfection … of serum” value in assay [1] is recorded as “remain potent transfectants even in the presence of mouse serum”. In assay [2], the “serum-resistant transfection of HeLa cells” value is “best serum-resistant transfection” and the “transfection of HeLa cells in the presence of mouse serum” value is “remain potent transfectants even in the presence of mouse serum”.

`CC(C)CCC[C@@H](C)[C@H]1CC[C@H]2[C@@H]3CC=C4C[C@@H](OC(=O)NCCN(C)C)CC[C@]4(C)[C@H]3CC[C@]12C` [DC-CHOL, reference compound]: in assay [1], the “transfection … of serum” value was “did not result in any transfection in the presence of serum”. The “serum-resistant transfection of HeLa cells” value in assay [2] is recorded as “still active in the absence, but no longer in the presence of mouse serum”.

Regarding `CCCCCCCC/C=C/CCCCCCCC(=O)NC(CCNC(=N)N)C(=O)NCCCCCCCCCCCCCCCC` (centres unmarked) [PONA, palmitoyl-oleoyl-nor-arginine], in assay [1], the “transfection … of serum” value is listed as “resulted in serum-resistant transfection; also recorded: remain potent transfectants even in the presence of mouse serum”. The “transfection of HeLa cells in the presence of mouse serum” value in assay [2] is “remain potent transfectants even in the presence of mouse serum”.

Turning to `CCCCCCCC/C=C/CCCCCCCC(=O)NC(CCN)C(=O)NCCCCCCCCCCCCCCCC` (centres unmarked) [PONamine], the “transfection … of serum” value in assay [1] is “resulted in serum-resistant transfection”.

In the case of `CCCCCCCC/C=C/CCCCCCCC(=O)NC(CC[N+](C)(C)C)C(=O)NCCCCCCCCCCCCCCCC` (centres unmarked) [PONammonium], the “transfection … of serum” value in assay [1] is recorded as “not PONammonium resulted in serum-resistant transfection”. The “transfection activity in the presence of sera” value in assay [3] is “remained inactive in the presence of sera”.
